Tests used:
mouse CUL4B = assay: Western blotting of MEF extracts after lentiviral shRNA infection (knockdown efficiency); format: cell-based; conditions: early passage (P3) primary MEFs, harvested 48 hours post-infection
Text: (§1) Short hairpin (sh) RNAs for gene targeting were as follows: murine sh-Cul4b was 5′-[…]-3′ (SEQ ID NO: 9); murine sh-Pcid2-1 was 5′-[…]-3′ (SEQ ID NO: 10); murine sh-Pcid2-2 was 5′-[…]-3′ (SEQ ID NO: 11); murine sh-p21 was 5′-[…]-3′ (SEQ ID NO: 12); scrambled sh-Cul4b was 5′-[…]-3′ (SEQ ID NO: 13); and human sh-Cul4a was 5′-GAAGCTGGTCATCAAGAAC-3′ (SEQ ID NO: 14). shRNAs were subcloned into the FUGW lentiviral vector and expressed under the U6 promoter (Sui and Shi, Methods Mol. Biol., 309: 205-218 (2005)). Recombinant lentiviruses were generated for infection of MEFs or HCT116 cells.
(§2) MEFs were isolated from embryonic day (E) 13.5 wild-type or Cul4a knockout embryos. shRNAs for murine Cul4b and Pcid2 as well as scrambled controls were subcloned into the FUGW lentiviral vector and expressed under the U6 promoter as described in Example 1. Recombinant shCul4b and shPcid2 lentiviruses were generated for infection of primary Cu/4a^f/f and Cul4a^−/− MEF cells. shRNA-containing FUGW lentivirus were added onto Cu/4a^f/f and Cul4a^−/− MEFs every 12 hours for 36 hours. The cells were harvested 48 hours post-infection, and Western blotting was performed on MEF extracts using antibodies against CUL4A (C-19, Santa Cruz Biotechnology), CUL-4B, DDB2 (Cell Signaling Technology, Danvers, Mass.), p21 (Santa Cruz Biotechnology), XPC, histone H3, and β-actin (Sigma, St. Louis, Mo.).

Cul4a−/− MEFs = assay: BrdU incorporation and cell viability of Cul4a−/− MEFs after Cul4b silencing; format: cell-based, mouse; conditions: silencing of Cul4b in Cul4a−/− MEFs
Text: FIG. 3A is a bar graph depicting the percentage of control (f/f-4a) and Cul4a knockout (ko-4a) MEFs infected with a lentivirus encoding GFP and either short hairpin (sh)-4b or scrambled (scm)-4b, at the indicated time point, as determined by FACS. FIG. 3B is a bar graph depicting BrdU incorporation into the MEFs described in FIG. 3A, as determined by counting BrdU^+ cells in microscopic fields.
as §1

[1] = test system: primary Cul4a f/f and Cul4a−/− MEF cells; assay: Western blotting of DDB2, p21 and XPC steady-state protein levels in MEFs after lentiviral shRNA; format: cell-based, mouse; conditions: Western blot
Experimental: as §2

[2] = test system: UV-induced CPDs and 6-4PPs in primary MEFs; assay: GGR ELISA assay of CPD and 6-4PP removal in MEFs; format: cell-based, mouse
XPC in HCT116 cells = assay: XPC chromatin binding and ubiquitination after UV irradiation (immunoblot of chromatin-bound extracts); format: cell-based, human; conditions: HCT116, lentiviral shRNA 48 hours
Experimental: XPC ubiquitination was determined in HCT116 cells following UV irradiation. HCT116 cells were infected with lentiviral shCul4a or control FUGW for 48 hours, UV irradiated at 10 J/m^2 and harvested at 0 hr, 0.5 hr, 1 hr, and 2 hr post-UV. The chromatin-bound extracts were prepared and subjected to immunoblotting.

HCT116 cells = assay: CPD repair (NER activity) in UV-irradiated HCT116 cells infected with adenovirus; format: cell-based, human; conditions: HCT116, 10 J/m^2 UV-C, 0-24 hr
Experimental: The GGR ELISA assay of CPD and 6-4PP removal was performed as previously described (Chen et al., 2006) in primary Cul4a^−/− (ko-4-a scm-4b), Cu/4b^k/d (f/f-4a sh-4b), and control Cu/4a^f/f (f/f-4a scm-4-b) MEFs (FIG. 7B, ko, knockout; k/d, knockdown; scm, scramble). Briefly, exponentially growing MEF cells were irradiated with 10 J/m^2 UV-C (254 nm) and either harvested immediately (0 hr) or allowed to repair for the duration indicated in FIG. 7B. Genomic DNA was isolated and quantified via liquid scintillation and fluorometric measurements of Hoechst-stained DNA. Denatured genomic DNA was fixed to each well of protamine sulfate-coated 96-well plates and sequentially incubated with monoclonal antibody specific for 6-4PPs (64M-2, 1:5000) or CPDs (1:5000), biotin-F(ab′)2 fragment of anti-mouse IgG (H+L) (1:2000, Zymed) and peroxidase-Streptavidin (1:10,000, Zymed) for 30 min at 37° C. The wells were washed with PBS-Tween and 0.1 M citrate-phosphate buffer and incubated with the substrate solution (0.1 M citrate-phosphate buffer, 0.1 mg/mL tetramethylbenzidine [TMB], 0.03% H2O2) at room temperature for 30 min. […] A450 was determined using a plate reader (Molecular Devices).
HCT116 cells were infected with a control adenovirus or an adenovirus comprising a gene encoding a DN-CUL4 (SEQ ID NO: 18). […] The rate of NER activity was then calculated as the rate of CPD repair as a function of time.

Molecule: shCul4b: murine short hairpin RNA targeting Cul4b, 5′-GTAGTAACGAGAGAGAAGACT-3′ (SEQ ID NO: 9), in FUGW lentiviral vector (listed as Mus musculus)
- reduction of mouse CUL4B protein (mouse CUL4B): over 93%
- BrdU incorporation (Cul4a−/− MEFs): dramatic reduction
- cell viability (Cul4a−/− MEFs): loss of cell viability
- effect on XPC accumulation ([1]; Cul4b knockdown): marginal effect
- effect on p21 protein accumulation ([1]; Cul4b silencing by RNAi): little effect
- effect on DDB2 levels ([1]; lentiviral shRNA): only a marginal effect
- effect on GGR efficiency (CPD and 6-4PP removal) ([2]; Cul4b knockdown in Cul4a f/f MEFs, 10 J/m^2 UV-C): no discernable effect

Molecule: sh-p21: murine short hairpin RNA targeting p21, 5′-GAGAACGGTGGAACTTTGACTT-3′ (SEQ ID NO: 12), lentiviral (expressed or natural sequence; listed as Mus musculus)
- reduction of NER activity in CPD removal compared to Cul4a−/− MEFs ([2]; p21 knockdown (or p21 deletion) in Cul4a−/− MEFs, 10 J/m^2 UV, 24-hour repair assay): 8-11%

Molecule: shCul4a: human short hairpin RNA targeting Cul4a, 5′-GAAGCTGGTCATCAAGAAC-3′ (SEQ ID NO: 14), in FUGW lentiviral vector (listed as Homo sapiens)
- association of XPC with chromatin (XPC in HCT116 cells; UV 10 J/m^2): increased
- XPC ubiquitination on chromatin post-UV (XPC in HCT116 cells; UV 10 J/m^2, 0-2 hr post-UV): dramatic inhibition

B1: DN-CUL4: dominant negative CUL4 fragment (SEQ ID NO: 18) expressed from an adenovirus (protein, listed as Homo sapiens)
chain: MADEAPRKGSFSALVGRTNGLTKPAALAAAPAKPGGAGGSKKLVIKNFRDRPRLPDNYTQDTWRKLHEAVRAVQSSTSIRYNLEELYQAVENLCSHKVSPMLYKQLRQACEDHVQAQILPFREDSLDSVLFLKKINTCWQDHCRQMIMIRSIFLFLDRTYVLQNSTLPSIWDMGLELFRTHIISDKMVQSKTIDGILLLIERERSGEAVDRSLLRSLLGMLSDLQVYKDSFELKFLEETNCLYAAEGQRLMQEREVPEYLNHVSKRLEEEGDRVITYLDHSTQKPLIACVEKQLL
modifications: DN-CUL4A (M1-L295)
- CPD repair compared to control adenovirus cells (HCT116 cells): occurred earlier and was more complete

From patent US8513181B2, “Substances and compositions for enhancing DNA repair and methods of use” (Cornell University, priority 2008, dated 2013)
